The record followed here is US7112605B2, “Sulfonyl-containing 3,4-diaryl-3-pyrrolin-2-ones, preparation method, and medical use thereof” (Research Institute of Materia Medica Chinese Acadamy of …, priority 2002, dated 2006).

In general, IC50 refers to the concentration at which inhibition is half-maximal.

Test [1] concerns the target T1, Cyclooxygenase-2 (Mus musculus, UniProt Q05769).
T1 construct: endogenous in cells; host or cells: thioglycollate-elicited peritoneal macrophages of male C57BL-6J mice
T1 sequence (Q05769 18-604): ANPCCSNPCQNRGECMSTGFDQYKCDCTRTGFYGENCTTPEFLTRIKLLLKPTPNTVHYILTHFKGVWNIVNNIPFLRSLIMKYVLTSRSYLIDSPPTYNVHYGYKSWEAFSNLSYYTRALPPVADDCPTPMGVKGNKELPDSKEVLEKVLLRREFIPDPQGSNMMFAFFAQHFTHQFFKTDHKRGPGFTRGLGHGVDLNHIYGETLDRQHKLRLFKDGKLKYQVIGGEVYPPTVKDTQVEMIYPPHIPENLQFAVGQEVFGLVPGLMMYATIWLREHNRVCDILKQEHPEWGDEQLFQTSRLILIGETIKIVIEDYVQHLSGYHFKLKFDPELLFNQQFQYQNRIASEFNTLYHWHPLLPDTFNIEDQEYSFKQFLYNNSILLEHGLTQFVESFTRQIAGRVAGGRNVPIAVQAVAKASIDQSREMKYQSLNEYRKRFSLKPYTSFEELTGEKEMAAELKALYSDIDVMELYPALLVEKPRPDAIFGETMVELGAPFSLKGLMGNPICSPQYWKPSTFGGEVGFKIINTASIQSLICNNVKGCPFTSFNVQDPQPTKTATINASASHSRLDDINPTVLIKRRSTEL
Description: COX-2 assay: LPS-stimulated PGE2 production in mouse peritoneal macrophages (RIA). Format: cell-based, mice. The conditions noted are these: for IC50: mouse peritoneal macrophages, LPS 1 mg/L 9 h, PGE2 by RIA; for COX-1/COX-2: ratio of IC50 COX-1 to IC50 COX-2. As to the method:
Cell culture: Adherent macrophages were harvested from the peritoneal cells of male mice (C57BL-6J, Level 2, from Experiment Animal Center, Academy of Military Medical Science) 3 d after the injection (ip) of brewer thioglycollate medium (5 mL/100 g body weight). […] After settlement for 2˜3 h, non-adherent cells were washed by D-Hanks' balanced salt solution. […] Cell viability was examined by trypan blue dye exclusion. All incubation procedures were performed with 5% CO2 in humidified air at 37° C.
COX-2 assay: Macrophages were incubated with test compound at different concentrations or solvent (Me2SO) for 1 h and were stimulated with LPS 1 mg/L for 9 h. The amount of PGE2 in supernatants was measured by RIA. The inhibitory ratio was calculated using the same formula as in COX-1 assay section. Cs, Ct, Cc refer to PGE2 concentration in supernatants of LPS, test compound, and control groups, respectively.
(§1) [formula] Cs, Ct, Cc refer to 6-keto-PGF1[…] concentration in supernatants of calcimycin, test compound, and control groups, respectively.
(§2) Statistical analysis: Data were expressed as the mean±SD of more than three independent experiments. Dose-inhibitory effect curves were fit through “uphill dose response curves, variable slope” using Prism, GraphPad version3.00: […]

The target in test [2] is T2, Cyclooxygenase-1 (Mus musculus, UniProt P22437).
T2 construct: endogenous in cells; host or cells: thioglycollate-elicited peritoneal macrophages of male C57BL-6J mice
T2 sequence (P22437 27-602): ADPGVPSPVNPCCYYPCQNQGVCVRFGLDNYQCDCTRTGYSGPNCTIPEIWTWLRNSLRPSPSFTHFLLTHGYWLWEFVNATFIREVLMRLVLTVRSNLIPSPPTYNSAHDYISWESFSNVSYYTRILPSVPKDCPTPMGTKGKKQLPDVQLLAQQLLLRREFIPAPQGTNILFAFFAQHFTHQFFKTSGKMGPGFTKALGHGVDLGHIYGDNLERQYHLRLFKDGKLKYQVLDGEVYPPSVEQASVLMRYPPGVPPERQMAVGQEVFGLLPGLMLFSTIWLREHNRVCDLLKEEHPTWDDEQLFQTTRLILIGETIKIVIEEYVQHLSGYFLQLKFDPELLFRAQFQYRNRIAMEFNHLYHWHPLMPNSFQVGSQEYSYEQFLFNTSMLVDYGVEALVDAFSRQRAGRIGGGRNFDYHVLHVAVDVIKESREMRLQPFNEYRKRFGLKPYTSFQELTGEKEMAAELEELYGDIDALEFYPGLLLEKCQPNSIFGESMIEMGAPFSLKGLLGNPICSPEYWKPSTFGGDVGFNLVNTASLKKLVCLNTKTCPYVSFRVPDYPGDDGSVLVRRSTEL
Description: COX-1 assay: calcimycin-stimulated 6-keto-PGF1 production in mouse peritoneal macrophages (RIA). It counts as cell-based, mice. To be noted: calcimycin 1 μmol/L 1 h, 6-keto-PGF1 by RIA. Here is the method:
Cell culture: Adherent macrophages were harvested from the peritoneal cells of male mice (C57BL-6J, Level 2, from Experiment Animal Center, Academy of Military Medical Science) 3 d after the injection (ip) of brewer thioglycollate medium (5 mL/100 g body weight). Shortly, peritoneal cells obtained from 3˜4 mice were mixed and seeded in 48 well cell culture cluster (Costar) at a cell density of 1×10^9 cell/L in RPMI-1640 supplemented with 5% (v/v) newborn calf serum, 100 ku/L penicillin and […] streptomycin. After settlement for 2˜3 h, non-adherent cells were washed by D-Hanks' balanced salt solution. Then macrophages were cultured in RPMI-1640 without serum. Almost all of adherent cells were macrophages as assessed by Giemsa staining. Cell viability was examined by trypan blue dye exclusion. All incubation procedures were performed with 5% CO2 in humidified air at 37° C.
COX-1: assay Macrophages were incubated with test compound at different concentrations or solvent (Me2SO) for 1 h and were stimulated with calcimycin 1 μmol·L^−1 for 1 h. The amount of 6-keto-PGF1[…] (a stable metabolite of PGI2) in supernatants was measured by RIA according to manufacturer's guide. The inhibitory ratio was calculated as
as §1, §2

Test [3] deals with rat carrageenan-induced foot pad edema. Description: Rat carrageenan-induced foot pad edema assay. Format: in vivo, rats. The conditions noted are these: 10 mg/kg oral. As to the method: Male Sprgue-Dawley rats (190–220 g) were fasted with free access to water at least 16 h prior to experiments. The rats were dosed orally with a 1 ml suspension of test compound in vehicle (0.5% methyl cellulose and 0.025% Tween-20) or with vehicle alone. One hour later a subplantar injection of 0.1 ml of 1% solution of caarageenan in 0.9% strile saline was administered to the right hind foot pad. Paw volume was measured with a displacement plethysmometer 2, 3, and 4 h after caarageenan injection.

The mark [4] stands for this setting: 3 h after carrageenan, read-out: inhibitory percentage of edema, 3 hr.
[5] abbreviates: 4 h after carrageenan, read-out: inhibitory percentage of edema, 4 hr.

Read-outs that look alike come from different tables or passages of the source.

`CS(=O)(=O)c1ccc(C2=C(c3cccc(Cl)c3)CN(C3CC3)C2=O)cc1` [Example 108, N-Cyclopropyl-3-(4-methylsulfonylphenyl)-4-(3-chlorophenyl)-2,5-dihydropyrrole-2-one]: the IC50 in test [1] was 0.783 µM; in test [2] it was > 10 µM. Besides, the inhibition at 10 mg/kg was determined as 36.4% in test [3] (setting [4]) and 43.5% in test [3] (setting [5]).
As to `CN1CC(c2ccc(S(C)(=O)=O)cc2)=C(c2ccccc2)C1=O` [Example 114, N-Methyl-3-phenyl-4-(4-methylsulfonylphenyl)-2,5-dihydropyrrole-2-one], in test [1], half-maximal inhibition (IC50) was put at 0.0142 µM and the COX-1/COX-2 is reported as 78.9. In addition, in test [2], the IC50 was 1.12 µM.
In the case of `Cc1cccc(C2=C(c3ccc(S(C)(=O)=O)cc3)CN(C3CC3)C2=O)c1` [Example 126, N-Cyclopropyl-3-(3-methylphenyl)-4-(4-methylsulfonylphenyl)-2,5-dihydropyrrole-2-one], in test [1], the IC50 was determined as 0.0155 µM and the COX-1/COX-2 came to 14.3. Further, the IC50 in test [2] is 0.221 µM.
On to `CS(=O)(=O)c1ccc(C2=C(c3ccc(Cl)cc3)C(=O)N(C3CCCCC3)C2)cc1` [Example 127, N-Cyclohexyl-3-(4-chlorophenyl)-4-(4-methylsulfonylphenyl)-2,5-dihydropyrrole-2-one], for which the IC50 is 0.0207 µM in test [1] and 0.143 µM in test [2].
As to `CS(=O)(=O)c1ccc(C2=C(c3ccc(Cl)cc3)CN(C3CC3)C2=O)cc1` [Example 107, N-Cyclopropyl-3-(4-methylsulfonylphenyl)-4-(4-chlorophenyl)-2,5-dihydropyrrole-2-one], the IC50 is 0.421 µM in test [1] and > 10 µM in test [2].
In the same order, the values of `CS(=O)(=O)c1ccc(C2=C(c3ccccc3)CN(C3CCCCC3)C2=O)cc1` [Example 112, N-Cyclohexyl-3-(4-methylsulfonylphenyl)-4-phenyl-2,5-dihydropyrrole-2-one] are 1.79 µM and > 10 µM.
For the compound `CS(=O)(=O)c1ccc(C2=C(c3ccccc3)C(=O)N(C3CC3)C2)cc1` [Example 116, N-Cyclopropyl-3-phenyl-4-(4-methylsulfonylphenyl)-2,5-dihydropyrrole-2-one], in test [1], half-maximal inhibition (IC50) was put at 0.0253 µM and the COX-1/COX-2 was 18.5. Further, the IC50 in test [2] is 0.468 µM.
Turning to `CCCN1CC(c2cccc(Br)c2)=C(c2ccc(S(N)(=O)=O)cc2)C1=O` [Example 132, N-Propyl-3-(4-aminosulfonylphenyl)-4-(3-bromophenyl)-2,5-dihydropyrrole-2-one], the IC50 is 0.998 µM in test [1] and > 10 µM in test [2].
Take `CN1CC(c2cccc(Cl)c2)=C(c2ccc(S(C)(=O)=O)cc2)C1=O` [Example 109, N-Methyl-3-(4-methylsulfonylphenyl)-4-(3-chlorophenyl)-2,5-dihydropyrrole-2-one]: the results for the IC50 in test [1] and in test [2] were 0.421 µM and > 10 µM, respectively.
In the case of `CCCN1CC(c2ccc(C)cc2)=C(c2ccc(S(C)(=O)=O)cc2)C1=O` [Example 104, N-Propyl-3-(4-methylsulfonylphenyl)-4-(4-methylphenyl)-2,5-dihydropyrrole-2-one], the inhibition at 10 mg/kg in test [3] (setting [4]) came to 24.5%; in test [3] (setting [5]), 19.3%.
Take `CCCN1CC(c2cccc(F)c2)=C(c2ccc(S(N)(=O)=O)cc2)C1=O` [Example 135, N-Propyl-3-(4-aminosulfonylphenyl)-4-(3-fluorophenyl)-2,5-dihydropyrrole-2-one]: the IC50 was 0.564 µM in test [1] and > 10 µM in test [2].
In the same order, the values of `CCCN1CC(c2ccc(F)cc2)=C(c2ccc(S(C)(=O)=O)cc2)C1=O` [Example 106, N-Propyl-3-(4-methylsulfonylphenyl)-4-(4-fluorophenyl)-2,5-dihydropyrrole-2-one] are 0.611 µM and > 10 µM.
`CCCN1CC(c2cccc(Cl)c2)=C(c2ccc(S(C)(=O)=O)cc2)C1=O` [Example 110, N-Propyl-3-(4-methylsulfonylphenyl)-4-(3-chlorophenyl)-2,5-dihydropyrrole-2-one] had an IC50 in test [1] of 0.783 µM. The inhibition at 10 mg/kg in test [3] (setting [4]) amounted to 25.8%; in test [3] (setting [5]), 36.7%.
For the compound `CS(=O)(=O)c1ccc(C2=C(c3ccc(F)cc3)C(=O)N(C3CC3)C2)cc1` [Example 128, N-Cyclopropyl-3-(4-fluorophenyl)-4-(4-methylsulfonylphenyl)-2,5-dihydropyrrole-2-one], the IC50 in test [1] is 0.0664 µM; in test [2], > 10 µM.
`CCCN1CC(c2cccc(Cl)c2)=C(c2ccc(S(N)(=O)=O)cc2)C1=O` [Example 133, N-Propyl-3-(4-aminosulfonylphenyl)-4-(3-chlorophenyl)-2,5-dihydropyrrole-2-one] showed an IC50 in test [1] of 0.482 µM.
With `NS(=O)(=O)c1ccc(C2=C(c3cccc(Cl)c3)CN(C3CC3)C2=O)cc1` [Example 137, N-Cylcopropyl-3-(4-aminosulfonylphenyl)-4-(3-chlorophenyl)-2,5-dihydropyrrole-2-one], the IC50 in test [1] is 1.69 µM; in test [2], > 10 µM.
Consider `Cc1cccc(C2=C(c3ccc(S(N)(=O)=O)cc3)CN(C3CC3)C2=O)c1` [Example 141, N-Cylcopropyl-3-(3-methylphenyl)-4-(4-aminosulfonylphenyl)-2,5-dihydropyrrole-2-one], for which the values for the IC50 in test [1] and in test [2] were 0.0187 µM and > 10 µM, respectively.
Consider `CCCN1CC(c2ccc(S(C)(=O)=O)cc2)=C(c2cccc(C)c2)C1=O` [Example 121, N-Propyl-3-(3-methylphenyl)-4-(4-methylsulfonylphenyl)-2,5-dihydropyrrole-2-one], for which the figures for the IC50 in test [1] and in test [2] were 0.0193 µM and 0.119 µM, respectively.
As to `CS(=O)(=O)c1ccc(C2=C(c3cccc(F)c3)CN(C3CC3)C2=O)cc1` [Example 113, N-Cyclopropyl-3-(4-methylsulfonylphenyl)-4-(3-fluorophenyl)-2,5-dihydropyrrole-2-one], the results for the IC50 in test [1] and in test [2] were 0.998 µM and > 10 µM, respectively.
